Results as given in patent US11324763B2, “Malaria transmission prevention agent having rare sugar as effective component thereof and malarial parasite growth regulating agent” (NATIONAL UNIVERSITY CORPORATION KAGAWA UNIVERSITY, priority 2014, dated 2022).
Entries after “also recorded” stand apart in the source; their conditions may differ.

Assays:
Format in all cases: in vivo
[1] = tested on: Plasmodium berghei parasite in Anopheles stephensi mosquitoes; experiment: Malaria parasite growth in the body of vector mosquitoes fed with a rare sugar (ookinete, oocyst, sporozoite counts); settings: for formation of ookinetes in the midgut of the mosquito: 100 mM rare sugar + 440 mM D-fructose fed, one day after sucking infected blood, vs control
Experimental: In order to block malaria transmission, a vector mosquito is fed with a feed containing a rare sugar in advance, and then made to suck blood of a mouse infected with Plasmodium berghei parasite, whereby garaetocytes are ingested into the midgut of the vector mosquito. Thereafter, the feed containing a rare sugar is continuously given to the mosquito, and at the time point when one day has passed after the gametocytes are ingested into the body, the number of ookinetes in the midgut is evaluated, and then, the number of oocysts on the midgut after 10 days, the number of sporozoites in the midgut and the number of sporozoites in the salivary glands after 18 days are evaluated. In this manner, the malaria parasite growth inhibitory effect of the rare sugar was examined.
First, three groups, each of which includes about 200 Anopheles stephensi mosquitoes, were prepared, and in a first group, a mixed aqueous solution of 100 mM D-allose and 440 mM D-fructose was fed, in a second group, a mixed aqueous solution of 100 mM B-psicose and 440 mM D-fructose was fed, and in a third group, an aqueous solution of 440 mM D-fructose was fed, which was used as a control. Each of these aqueous solutions was placed in an Erlenmeyer flask, and a lower end portion of a filter paper was dipped in the aqueous solution, and Anopheles stephensi mosquitoes were fed with the aqueous solution absorbed in the filter paper.
Further, red blood cells infected with Plasmodium berghei parasite were intraperitoneally administered to BALB/c mice (6 weeks of age, female), whereby mice infected with malaria were prepared.
Anopheles stephensi mosquitoes in each group were made to suck each aqueous solution for 3 days, and thereafter, made to suck blood of the mice infected with Plasmodium berghei malaria, whereby the malaria parasites were incorporated in the body of Anopheles stephensi mosquitoes. Subsequently, while continuously giving the fructose aqueous solution containing a rare sugar or the aqueous solution containing only fructose, the number of parasites in the body of the mosquitoes was evaluated at the below-mentioned timings. That is, 24 hours after sucking infected blood, the number of ookinetes in the midgut was counted, the number of oocysts on the midgut was counted after 10 days, and the number of sporozoites in the midgut and in the salivary glands were counted after 18 days, and the results of the three groups were compared.
The D-allose concentration dependence for malaria parasite growth blocking effect of a rare sugar was examined. Four groups of Anopheles stephensi mosquitoes were prepared, and in a first group to a third group, mixed aqueous solutions of 10 mM, 30 mM, or 100 mM D-allose and 440 mM D-fructose were fed, respectively, and in a fourth group, an aqueous solution of 440 mM D-fructose was fed. In each of these aqueous solutions, a lower end portion of a filter paper was dipped, and Anopheles stephensi mosquitoes were fed with the aqueous solution absorbed in the filter paper.
Anopheles stephensi mosquitoes in each group were made to suck each aqueous solution for 3 days, and thereafter, made to suck blood of the mice infected with Plasmodium berghei malaria, whereby the malaria parasites were incorporated in the body of Anopheles stephensi mosquitoes. Thereafter, while continuously giving the aqueous solution containing a rare sugar or the aqueous solution containing only fructose, the number of parasites in the body of the mosquitoes was counted at respective timings. That is, 24 hours after sucking infected blood, the number of ookinetes in the midgut, was counted, the number of oocysts on the midgut was counted after 10 days, and the number of sporozoites in the midgut and in the salivary glands were counted after 18 days, and the results of the four groups were compared. […]

[2] = tested on: Plasmodium berghei transmission from Anopheles stephensi mosquitoes to BALB/c mice; experiment: Infectivity to mice: malaria transmission by rare-sugar-fed mosquitoes sucking blood of BALB/c mice; settings: for onset of malaria in mice: compared with 10 mM group and fructose single feeding group
Source text: 20 days after sucking blood of an infected mouse, each group of mosquitoes which had been fed with a rare sugar (D-allose or D-psicose) and a control group of mosquitoes which had not been fed with a rare sugar were made to suck blood of mice, and the infectivity of malaria in mice was examined. As a result, in a group in which the mosquitoes fed with D-allose were made to suck blood, malaria infection was not observed in about 70% of mice, and the infection inhibitory effect of a rare sugar was confirmed.
(§1) Each of the Anopheles stephensi mosquitoes in the three groups fed with the feed for 20 days in the above Example 1 was made to suck blood of the BALB/c mice (6 weeks of age, female). In each group, 50 mosquitoes were made to suck blood of 5 mice for 1 minute 5 times for each mouse. Every day from 2 days after sucking blood, a smear preparation was prepared from a small amount of blood collected from the tail of each mouse, followed by Giemsa staining, and thereafter, the presence or absence of parasites was examined with a microscope. In some mice, parasites were confirmed 3 days after sucking blood, and thereafter, the incidence rate increased, however, whether or not malaria was developed was determined based on the presence or absence of parasites at the time point of 14 days after sucking blood in the end.
Each of the Anopheles stephensi mosquitoes in the four groups fed with the feed for 20 days in the above Example 3 was made to suck blood of the BALE/c mice (6 weeks of age, female). In each group, 50 mosquitoes were made to suck blood of 5 mice for 1 minute 5 times for each mouse. Every day from 2 days after sucking blood, a smear preparation was prepared from a small amount of blood collected from the tail of each mouse, followed by Giemsa staining, and thereafter, the presence or absence of parasites was examined with a microscope. Whether or not malaria was developed was determined at the time point of 14 days after sucking blood. […] Also in the 30 mM D-allose feeding group, the incidence rate was 100%, however, malaria was developed one day later as compared with the 10 mM D-ailose feeding group and the fructose single feeding group.
as §1, with “Example 5” for “Example 1”, “the BALE/c” for “the BALB/c”

[3] = tested on: Plasmodium berghei parasite in Anopheles stephensi mosquitoes; experiment: Malaria parasite growth in the body of vector mosquitoes fed with a rare sugar (ookinete, oocyst, sporozoite counts); settings: Example 5, D-allose 100 mM + 440 mM D-fructose or Rare Sugar Sweet diluted 2.3 times
[4] = Example 1, 100 mM rare sugar + 440 mM D-fructose, 10 days after sucking blood
[5] = Example 1, 100 mM rare sugar + 440 mM D-fructose, 18 days after sucking blood
[6] = Example 2, mosquitoes fed 100 mM rare sugar + Fructose 440 mM for 20 days, determined 14 days after sucking blood
[7] = Examples 1 and 2, 100 mM rare sugar + 440 mM D-fructose

O=C[C@H](O)[C@H](O)[C@H](O)[C@H](O)CO [D-allose]
formation of ookinetes in the midgut of the mosquito ([1]; Example 1): not suppressed; also recorded: slight
formation of oocysts on the midgut [1, 4]: suppressed
number of oocysts suppressed as compared with the control group [1, 4]: 95%
formation of sporozoites in the midgut [1, 5]: suppressed
formation of sporozoites in the salivary glands [1, 5]: suppressed
number of sporozoites in the midgut suppressed as compared with the control group [1, 5]: 98.7%
number of sporozoites in the salivary gland suppressed as compared with the control group [1, 5]: 98.5%
number of sporozoites in the salivary glands ([1]; Example 3, 30 mM D-allose feeding group, 18 days after sucking blood): significantly decreased
number of oocysts ([1]; Example 3, D-allose 10 mM to 100 mM + 440 mM D-fructose, 10 days after sucking blood): suppressed in a D-allose concentration-dependent manner
growth into ookinetes in the midgut ([1]; Example 3, D-allose 10 mM to 100 mM + 440 mM D-fructose, one day after sucking blood): suppressed in a concentration-dependent manner
growth of oocysts on the midgut ([1]; Example 3, D-allose 100 mM + 440 mM D-fructose, 10 days after sucking blood): almost completely suppressed
formation of sporozoites (midgut and salivary glands) ([1]; Example 3, D-allose 100 mM + 440 mM D-fructose, 18 days after sucking blood): completely suppressed
suppression of the formation of ookinetes in the midgut ([1]; Example 5, D-allose 100 mM + 440 mM D-fructose or Rare Sugar Sweet diluted 2.3 times, one day after sucking blood): slight
Incidence rate after sucking blood (%) (mice which developed malaria/mice which had their blood sucked) [2, 6]: 29%
Incidence rate after sucking blood (%) (mice which developed malaria/mice which had their blood sucked) ([2]; Example 2, mosquitoes fed 100 mM rare sugar + Fructose 440 mM for 20 days, determined 14 days after sucking blood, listed as Allose): 29 (2/7) %
number of sporozoites inoculated into the mice when having their blood sucked ([2]; Example 4, 30 mM D-allose feeding group, inferred from onset one day later): about one-tenth
malaria transmission / development of malaria in mice ([2]; Example 4, 100 mM D-allose + D-fructose): did not develop malaria
incidence rate suppressed ([2]; Example 4, 100 mM D-allose feeding group): 100%
Incidence rate after sucking blood (%) (mice which developed malaria/mice which had their blood sucked) ([2]; Example 4, Allose 10 mM + Fructose 440 mM, 14 days after sucking blood): 100%
Incidence rate after sucking blood (%) (mice which developed malaria/mice which had their blood sucked) ([2]; Example 4, Allose 10 mM + Fructose 440 mM, 14 days after sucking blood, listed as Allose): 100 (5/5) %
Incidence rate after sucking blood (%) (mice which developed malaria/mice which had their blood sucked) ([2]; Example 4, Allose 30 mM + Fructose 440 mM, 14 days after sucking blood): 100%
Incidence rate after sucking blood (%) (mice which developed malaria/mice which had their blood sucked) ([2]; Example 4, Allose 30 mM + Fructose 440 mM, 14 days after sucking blood, listed as Allose): 100 (5/5) %
onset of malaria in mice ([2]; Example 4, Allose 30 mM + Fructose 440 mM): one day later
onset of malaria in mice ([2]; Example 4, Allose 30 mM + Fructose 440 mM, listed as Allose): The onset was delayed
Incidence rate after sucking blood (%) (mice which developed malaria/mice which had their blood sucked) ([2]; Example 4, Allose 100 mM + Fructose 440 mM, 14 days after sucking blood): 0 (0/5) %
Incidence rate after sucking blood (%) (mice which developed malaria/mice which had their blood sucked) ([2]; Example 6, Allose 100 mM + Fructose 440 mM or Rare Sugar Sweet diluted 2.3 times, 14 days after sucking blood): 0 (0/5) %
malaria transmission (transmission-blocking effect) ([2]; Example 6, D-allose 100 mM + D-fructose or Rare Sugar Sweet diluted 2.3 times): completely inhibited; also recorded: completely transmission-blocking effect
malaria transmission (transmission-blocking effect) [2, 7]: significantly suppressed; also recorded: completely blocks
mice in which malaria infection was not observed ([2]; mosquitoes fed with rare sugar, 20 days after sucking blood of an infected mouse): about 70%
number of oocysts suppressed as compared with the control group ([3]; 10 days after sucking blood): 100%
number of sporozoites in the midgut suppressed as compared with the control group ([3]; 18 days after sucking blood): 100%
number of sporozoites in the salivary glands suppressed ([3]; 18 days after sucking blood): 100%

O=C(CO)[C@H](O)[C@H](O)[C@H](O)CO [D-psicose]
formation of ookinetes in the midgut of the mosquito ([1]; Example 1): suppressed to some extent; also recorded: somewhat suppressed
formation of oocysts on the midgut [1, 4]: slightly promoted
formation of sporozoites in the salivary glands [1, 5]: slightly exceeding that in the control
number of sporozoites in the midgut suppressed as compared with the control group [1, 5]: about 60%
Incidence rate after sucking blood (%) (mice which developed malaria/mice which had their blood sucked) [2, 6]: 100%
Incidence rate after sucking blood (%) (mice which developed malaria/mice which had their blood sucked) ([2]; Example 2, mosquitoes fed 100 mM rare sugar + Fructose 440 mM for 20 days, determined 14 days after sucking blood, listed as Psicose): 100 (6/6) %
malaria transmission (transmission-blocking effect) [2, 7]: not observed
